Source: patent US11141410B2 (MERCK SHARP & DOHME CORP., priority 2015, dated 2021)

Assays:
MRSA COL (MB5393) [1] = experiment: TarO Inhibitor/β-Lactam Synergy Assay (growth, OD600); assay type: cell-based, Staphylococcus aureus; conditions: for MITC95 TarO inhibitor + 4 μg/mL IPM; Bacteria: SA_MB5393: in combination with 4 μg/mL imipenem (IPM); for MITC95 TarO inhibitor + 8 μg/mL DCX; Bacteria: SA_MB5393: in combination with 8 μg/mL dicloxacillin (DCX)
Procedure, shortened: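 TarO inhibitors titrated 2-fold from 200 μM (2% DMSO) against MRSA COL, 5×10^5 CFU in CAMHB, with β-lactam fixed at clinical breakpoint (imipenem 4 μg/ml or dicloxacillin 8 μg/ml). Incubated 20 h at 37 °C without shaking; relative growth read as OD600.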

MRSA COL (MB5393) [2] = experiment: as above; assay type: cell-based; conditions: Staphylococcus aureus, TarO inhibitor alone, >200 μM = 95% growth inhibition not achieved, 20 hours at 37° C., read-out: MITC95 TarO inhibitor alone, Bacteria: SA_MB5393

| SMILES | MITC95 TarO inhibitor + 4 μg/mL IPM; Bacteria: SA_MB5393 (MRSA COL (MB5393) [1]) [µM] | MITC95 TarO inhibitor + 8 μg/mL DCX; Bacteria: SA_MB5393 (MRSA COL (MB5393) [1]) [µM] | IC95 (MRSA COL (MB5393) [2]) [µM] |
| --- | --- | --- | --- |
| C[C@H]1[C@@H](c2cc(N3CCC(F)(F)C3)cc(C(F)(F)F)c2)OC(=O)N1C(=O)NCc1cccc2cncnc12 [Example 97, (4S,5R)-5-(3-(3,3-difluoropyrrolidin-1-yl)-5-(trifluoromethyl)phenyl)-4-methyl-2-oxo-N-(quinazolin-8-ylmethyl)oxazolidine-3-carboxamide] | 0.42 | 3.32 | > 200 |
| C[C@@H]1NN(C(=O)NCc2cncc3ccccc23)C(=O)O[C@@H]1c1cc(F)cc(C(F)(F)F)c1 [Example 95] | 5.21 | 4.17 | > 200 |
| C[C@H]1[C@@H](c2cc(F)cc(C(F)(F)F)c2)OC(=O)N1C(=O)NCc1ccccc1-n1cccc1 [Example 32, (4S,5R)-5-[3-fluoro-5-(trifluoromethyl)phenyl]-4-methyl-2-oxo-N-[2-(1H-pyrrol-1-yl)benzyl]-1,3-oxazolidine-3-carboxamide] | 0.59 | 4.69 | > 200 |
| COc1cccc(CNC(=O)N2C(=O)O[C@H](c3cc(C(F)(F)F)cc(C(F)(F)F)c3)[C@@H]2CO)c1OC [Example 52, (4S,5R)-5-[3,5-bis(trifluoromethyl)phenyl]-N-(2,3-dimethoxybenzyl)-4-(hydroxymethyl)-2-oxo-1,3-oxazolidine-3-carboxamide] | 0.03 | 0.06 | > 200 |
| Cc1cc(C)cc([C@H]2OC(=O)N(C(=O)CCc3cncc4ccccc34)[C@H]2C)c1 [Example 77, (4S,5R)-5-(3,5-dimethylphenyl)-3-(3-isoquinolin-4-ylpropanoyl)-4-methyl-1,3-oxazolidin-2-one] | 0.63 | 5.21 | > 200 |
| C[C@H]1[C@@H](c2ccc(F)c(F)c2)OC(=O)N1C(=O)CCc1cncc2ccccc12 [Example 82, (4S,5R)-5-(3,4-difluorophenyl)-3-(3-isoquinolin-4-ylpropanoyl)-4-methyl-1,3-oxazolidin-2-one] | 9.38 | – | > 200 |
| COc1ccccc1CNC(=O)N1C(=O)O[C@H](c2cc(F)cc(C(F)(F)F)c2)[C@@H]1C [Example 8, (4S,5R)-5-[3-fluoro-5-(trifluoromethyl)phenyl]-N-(2-methoxybenzyl)-4-methyl-2-oxo-1,3-oxazolidine-3-carboxamide] | 0.13 | 1.32 | > 200 |
| C[C@H]1[C@@H](c2cc(F)cc(C(F)(F)F)c2)OC(=O)N1C(=O)NCc1cccc2cn[nH]c12 [Example 39, (4S,5R)-5-[3-fluoro-5-(trifluoromethyl)phenyl]-N-(1H-indazol-7-ylmethyl)-4-methyl-2-oxo-1,3-oxazolidine-3-carboxamide] | 0.78 | 25 | > 200 |
| O=C(NCc1cncc2ccccc12)N1C(=O)O[C@H](c2cc(F)cc(C(F)(F)F)c2)[C@@H]1CCO [Example 99, (4S,5R)-5-(3-fluoro-5-(trifluoromethyl)phenyl)-4-(2-hydroxyethyl)-N-(isoquinolin-4-ylmethyl)-2-oxooxazolidine-3-carboxamide] | 18.75 | 100 | > 200 |
| C[C@H]1[C@@H](c2cc(F)cc(C(F)(F)F)c2)OC(=O)N1C(=O)NCc1cccc2ccccc12 [Example 6, (4S,5R)-5-[3-fluoro-5-(trifluoromethyl)phenyl]-4-methyl-N-(naphthalen-1-ylmethyl)-2-oxo-1,3-oxazolidine-3-carboxamide] | 0.01 | 0.02 | > 200 |
| C[C@H]1[C@@H](c2cc(F)cc(C(F)(F)F)c2)OC(=O)N1C(=O)NCc1cccc(N(C)C)c1 [Example 9, (4S,5R)-N-[3-(dimethylamino)benzyl]-5-[3-fluoro-5-(trifluoromethyl)phenyl]-4-methyl-2-oxo-1,3-oxazolidine-3-carboxamide] | 0.22 | 1.65 | > 200 |
| COc1cc(C(F)(F)F)cc([C@H]2OC(=O)N(C(=O)NCc3cncc4cccnc34)[C@H]2C)n1 [Example 60, (4S,5S)—N-((1,6-naphthyridin-8-yl)methyl)-5-(6-methoxy-4-(trifluoromethyl)pyridin-2-yl)-4-methyl-2-oxooxazolidine-3-carboxamide] | 0.33 | 1.45 | > 200 |
| C[C@H]1[C@@H](c2cc(F)cc(C3CC3)c2)OC(=O)N1C(=O)NCc1cncc2ccccc12 [Example 26, (4S,5R)-5-(3-cyclopropyl-5-fluorophenyl)-N-(isoquinolin-4-ylmethyl)-4-methyl-2-oxo-1,3-oxazolidine-3-carboxamide] | 0.25 | 0.99 | > 200 |
| Cc1nc(C)c(CNC(=O)N2C(=O)O[C@H](c3cc(F)cc(C(F)(F)F)c3)[C@@H]2C)s1 [Example 43, (4S,5R)-N-[(2,4-dimethyl-1,3-thiazol-5-yl)methyl]-5-[3-fluoro-5-(trifluoromethyl)phenyl]-4-methyl-2-oxo-1,3-oxazolidine-3-carboxamide] | 5.21 | 42 | > 200 |
| C[C@H]1[C@@H](c2cc(F)cc(C(F)(F)F)c2)OC(=O)N1C(=O)NCc1nccc2sccc12 [Example 14, (4S,5R)-5-[3-fluoro-5-(trifluoromethyl)phenyl]-4-methyl-2-oxo-N-(thieno[3,2-c]pyridin-4-ylmethyl)-1,3-oxazolidine-3-carboxamide] | 0.49 | 5.63 | > 200 |
| Cc1cc([C@H]2OC(=O)N(C(=O)CCc3cccc4cnccc34)[C@H]2C)cc(C(F)(F)F)c1 [Example 74, (4S,5R)-3-(3-isoquinolin-5-ylpropanoyl)-4-methyl-5-[3-methyl-5-(trifluoromethyl)phenyl]-1,3-oxazolidin-2-one] | 0.30 | 6.25 | > 200 |
| C[C@H]1[C@@H](c2cc(C(F)(F)F)cc(C(F)(F)F)c2)OC(=O)N1C(=O)NCc1cccnc1N1CCOCC1 [Example 45, (4S,5R)-5-[3,5-bis(trifluoromethyl)phenyl]-4-methyl-N-[(2-morpholin-4-ylpyridin-3-yl)methyl]-2-oxo-1,3-oxazolidine-3-carboxamide] | 4.69 | 25 | > 200 |
